Test results as given in article PMC3689833, “Neurochemical Changes in the Mouse Hippocampus Underlying the Antidepressant Effect of Genetic Deletion of P2X7 Receptors” (PLoS ONE, 2013).

How the values were obtained:
β-adrenergic receptors = assay: 3H-Dihydroalprenolol binding in hippocampal membranes; parameters: species or system mouse
Procedure: Male mice (80–85 days old) were decapitated, and the hippocampus was dissected, weighted, and frozen overnight at −70°C. The next day, the tissue from four animals was pooled, homogenized in incubation buffer using an Ultra-Turrax and centrifuged at 40 000×g for 15 minutes. The pellet was washed by repeated resuspension in buffer, followed by centrifugation. […] Eight ligand concentrations (0.1–4 nM) were used in three parallels. […] The membranes of P2rx7+/+ and P2rx7−/− mice were assayed in parallel. The binding was terminated using vacuum filtration on GF/B filters soaked in 0.05% polyethylenimine. The Kd and the number of binding sites (Bmax) were calculated using Prism3 software. The protein concentration (approx. 0.5 mg/ml) was measured according to Lowry method [50] using CuEDTA.

NA transporter = target: T1, NA transporter (Mus musculus, UniProt O55192); assay: 3H-Nisoxetine binding in hippocampal membranes
T1 construct: the tissue from four animals was pooled, homogenized in incubation buffer; from tissue; host or cells: mouse hippocampus membranes (P2rx7+/+ and P2rx7-/- littermates, C57BL/6 background)
T1 sequence (O55192 whole entry): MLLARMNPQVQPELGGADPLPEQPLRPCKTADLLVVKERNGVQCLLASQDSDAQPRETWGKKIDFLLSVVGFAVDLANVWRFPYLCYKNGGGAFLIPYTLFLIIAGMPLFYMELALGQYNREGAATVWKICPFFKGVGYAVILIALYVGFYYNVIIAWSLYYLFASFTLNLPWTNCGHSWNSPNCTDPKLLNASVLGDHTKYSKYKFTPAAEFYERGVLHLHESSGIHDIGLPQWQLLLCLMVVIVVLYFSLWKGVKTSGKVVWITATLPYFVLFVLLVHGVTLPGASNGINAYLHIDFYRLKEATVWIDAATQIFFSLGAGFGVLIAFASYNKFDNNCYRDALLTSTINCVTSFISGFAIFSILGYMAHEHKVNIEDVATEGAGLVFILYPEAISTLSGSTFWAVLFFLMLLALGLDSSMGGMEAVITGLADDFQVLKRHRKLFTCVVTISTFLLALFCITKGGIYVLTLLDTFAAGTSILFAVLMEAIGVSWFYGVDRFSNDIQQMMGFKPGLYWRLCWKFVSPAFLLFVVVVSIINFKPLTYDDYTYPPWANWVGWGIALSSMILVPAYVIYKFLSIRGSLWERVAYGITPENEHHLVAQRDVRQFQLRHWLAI
Procedure: Male mice (80–85 days old) were decapitated, and the hippocampus was dissected, weighted, and frozen overnight at −70°C. The next day, the tissue from four animals was pooled, homogenized in incubation buffer using an Ultra-Turrax and centrifuged at 40 000×g for 15 minutes. The pellet was washed by repeated resuspension in buffer, followed by centrifugation. […] Eight ligand concentrations (0.1–4 nM) were used in three parallels. The incubation time was 1 hour at 25°C for citalopram, 2.5 hrs at 4°C for nisoxetine and 30 minutes at 25°C for dihydroalprenolol. The non-specific binding was determined in the presence of 1 µM paroxetine (citalopram), 10 µM desmethylimipramine (nisoxetine) and 1 µM (-) alprenolol (DHA). The membranes of P2rx7+/+ and P2rx7−/− mice were assayed in parallel. The binding was terminated using vacuum filtration on GF/B filters soaked in 0.05% polyethylenimine. The Kd and the number of binding sites (Bmax) were calculated using Prism3 software. The protein concentration (approx. 0.5 mg/ml) was measured according to Lowry method using CuEDTA.

[1] = hippocampal membranes of P2rx7+/+ mice
[2] = hippocampal membranes of P2rx7−/− mice

| Kd (NA transporter) | Bmax (NA transporter; [1]) | Bmax (NA transporter; [2]) | Structure (SMILES) | Kd (β-adrenergic receptors; [1]) | Kd (β-adrenergic receptors; [2]) |
| --- | --- | --- | --- | --- | --- |
|  |  |  | CCCc1ccccc1OCC(O)CNC(C)C (centres unmarked) [^3H-dihydroalprenolol] | 0.5 ± 0.02 nM | 0.4 ± 0.02 nM |
| 0.7 ± 0.05 nM | 126.8±4.9 fmol/mg protein | 131.4±7.5 fmol/mg protein | CNCCC(Oc1ccccc1OC)c1ccccc1 (centres unmarked) [^3H-nisoxetine] |  |  |
